Here are results for one molecule from US7935723B2, “Use of organic compounds” (Novartis Pharma AG, priority 2004, dated 2011).

Data set [1] deals with patients with Type 2 diabetes. Nature of the data set: Clinical study (12-week core + 40-week extension): HbA1c in patients with Type 2 diabetes on metformin. In kind it is in vivo, human. To be noted: over one year. The protocol:
This is a 40-week extension to core study, a 12-week randomized, parallel group, multi-center, placebo-controlled trial in patients with Type 2 diabetes who are already receiving metformin at a stable dosage of 1500-3000 mg daily. Patients treated with placebo, LAF237 50 mg OD (omnia die/once a day) in addition to metformin during the core study and maintained their treatment regimen in the extension. […] All patients are randomized to receive either placebo or LAF237 (50 mg) once dally for 52 weeks in addition to metformin at an unchanged dosage. During the 4-week run-in period, all patients receive LAF237 placebo tablets and are assessed for inclusion in the study. Patients meeting the inclusion criteria at the Baseline visit receives randomized treatment once daily for 52 weeks. The total study duration for each patient is 56 weeks. Throughout the study, patients are required to maintain their prior diet and exercise habits and to continue to take metformin at an unchanged dosage. […] This is measured by using Tosoh ion exchange High Performance Liquid Chromotography (HPLC). Primus Affinity HPLC is used as a back-up method if hemoglobin variants or hemoglobin degradation peaks are observed. The primary efficacy variable is change from baseline in HbA1c at the end of the study. […]

Data set [2] has as its system patients with Type 2 diabetes. Nature of the data set: Clinical study: safety and tolerability, study completion. It is filed as in vivo, human. To be noted: 52 weeks, in combination with metformin. The source says:
Safety assessments consist of monitoring and recording all non-serious and serious adverse events (SAE), the regular monitoring of hematology, blood chemistry and urinalysis values, regular measurement of vital signs, the performance of physical examinations and body weight measurements. The assessment of safety is based mainly on the frequency of adverse events and on the number of laboratory values that fall outside of pre-determined ranges. Other safety data (e.g. vital signs) will be considered as appropriate.

Take `N#C[C@@H]1CCCN1C(=O)CNC12CC3CC(CC(O)(C3)C1)C2` [LAF237, (S)-1-[(3-hydroxy-1-adamantyl)amino]acetyl-2-cyano-pyrrolidine]: the “course of HbA1c levels (in words)” value in data set [1] was “decreased significantly”. The tolerability result in data set [2] was “well tolerated”.
